# Data taken from ChEMBL document CHEMBL1201862, “PubChem BioAssay data set” (2004).
# The source made the active and inactive calls. Cut-off read from the data, not from the text of the source, for most assays here: actives have a measured EC50 and inactives only a lower limit.
# Legend:
# [1] = tested on: Streptococcus sp. 'group A'; experiment: Streptococcus pyogenes SK(-)GAS viability under kanamycin – luminescence, BacTiterGlo, confirmation, counter-screen for streptokinase expression inhibitor project, dose response (AID 1900); type: functional, organism-based
# Streptokinase A = target: T1, Streptokinase A (Streptococcus pyogenes serotype M1, UniProt P10520); experiment: viability-normalized secreted streptokinase activity reduction – plasminogen activation absorbance, OD405, dose response (AID 1914); type: functional, Streptococcus pyogenes M1 GAS;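 note: secreted streptokinase activity via plasminogen activation per viability signal from cell pellet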
# T1 sequence (P10520 whole entry): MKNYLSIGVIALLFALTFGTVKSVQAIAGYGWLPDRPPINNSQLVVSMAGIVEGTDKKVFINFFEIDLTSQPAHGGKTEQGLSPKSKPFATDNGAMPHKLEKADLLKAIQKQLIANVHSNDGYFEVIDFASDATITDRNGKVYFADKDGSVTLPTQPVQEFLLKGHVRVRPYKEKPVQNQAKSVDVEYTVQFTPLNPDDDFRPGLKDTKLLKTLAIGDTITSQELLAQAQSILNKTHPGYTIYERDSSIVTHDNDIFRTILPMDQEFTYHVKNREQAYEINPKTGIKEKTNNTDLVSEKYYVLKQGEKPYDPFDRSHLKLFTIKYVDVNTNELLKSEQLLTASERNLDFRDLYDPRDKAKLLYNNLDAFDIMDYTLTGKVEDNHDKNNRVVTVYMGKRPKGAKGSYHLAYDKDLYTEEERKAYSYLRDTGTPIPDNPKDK
# Streptococcus = experiment: GAS UMAA2166 growth inhibition – luminescence, BacTiterGlo, counter-screen for streptokinase expression inhibitor project, dose response (AID 1915); type: functional, organism-based;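 note: potency for reduction of bacterial viability or growth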
# [2] = NIH3T3 cell viability loss – ATP luminescence, mouse fibroblasts, counter-screen, dose response (AID 2010); type: functional, cell-based;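 note: cells exposed to compound for about 90 hours before reading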
# [3] = Trypanosoma cruzi growth suppression in host cells – NIH3T3 host cells, beta-gal luminescence, confirmation (AID 2044); type: functional, cell-based;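 note: intracellular parasites grown in NIH/3T3 mouse fibroblasts as host cells; luminescent beta-galactosidase reporter signal from transgenic T. cruzi replicating inside host cells; inhibitors lower the luminescence signal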
# Cytochrome P450 2C9 = Cytochrome P450 2C9 (Homo sapiens, UniProt P11712)
# Cytochrome P450 3A4 = Cytochrome P450 3A4 (Homo sapiens, UniProt P08684);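 note: CYP3A4 tested as one member of a cytochrome P450 panel screen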
# Cytochrome P450 1A2 = target: T2, Cytochrome P450 1A2 (Homo sapiens, UniProt P05177);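 note: PubChem cytochrome P450 panel assay, CYP1A2 panel member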
# T2 sequence (P05177 whole entry): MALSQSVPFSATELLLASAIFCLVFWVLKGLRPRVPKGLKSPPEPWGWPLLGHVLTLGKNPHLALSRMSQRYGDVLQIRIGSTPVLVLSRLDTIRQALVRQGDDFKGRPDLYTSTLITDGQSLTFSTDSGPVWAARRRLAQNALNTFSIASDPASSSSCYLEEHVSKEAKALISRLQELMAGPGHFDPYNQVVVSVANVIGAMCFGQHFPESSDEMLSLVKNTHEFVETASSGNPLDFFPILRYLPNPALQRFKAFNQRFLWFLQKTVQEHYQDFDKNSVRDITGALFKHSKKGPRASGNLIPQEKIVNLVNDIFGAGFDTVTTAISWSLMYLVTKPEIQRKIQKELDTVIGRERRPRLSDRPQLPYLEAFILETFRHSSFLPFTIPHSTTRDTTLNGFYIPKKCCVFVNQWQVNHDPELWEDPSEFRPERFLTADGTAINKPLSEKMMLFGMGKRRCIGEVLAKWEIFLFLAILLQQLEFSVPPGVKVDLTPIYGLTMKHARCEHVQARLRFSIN
# Cytochrome P450 2C9, sequence (P11712 whole entry): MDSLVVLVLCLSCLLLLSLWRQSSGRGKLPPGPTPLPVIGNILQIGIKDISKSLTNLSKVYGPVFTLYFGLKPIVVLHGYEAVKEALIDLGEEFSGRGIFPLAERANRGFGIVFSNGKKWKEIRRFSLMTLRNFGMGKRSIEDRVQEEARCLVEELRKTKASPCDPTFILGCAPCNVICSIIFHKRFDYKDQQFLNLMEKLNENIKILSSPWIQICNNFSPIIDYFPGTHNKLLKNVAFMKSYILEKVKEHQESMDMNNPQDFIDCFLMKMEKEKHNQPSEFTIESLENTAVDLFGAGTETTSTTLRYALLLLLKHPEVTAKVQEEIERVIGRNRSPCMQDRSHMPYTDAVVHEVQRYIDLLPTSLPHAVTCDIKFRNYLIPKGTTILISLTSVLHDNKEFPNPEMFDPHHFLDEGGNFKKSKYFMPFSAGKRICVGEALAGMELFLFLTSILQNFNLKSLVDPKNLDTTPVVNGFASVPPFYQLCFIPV
# Cytochrome P450 3A4, sequence (P08684 whole entry): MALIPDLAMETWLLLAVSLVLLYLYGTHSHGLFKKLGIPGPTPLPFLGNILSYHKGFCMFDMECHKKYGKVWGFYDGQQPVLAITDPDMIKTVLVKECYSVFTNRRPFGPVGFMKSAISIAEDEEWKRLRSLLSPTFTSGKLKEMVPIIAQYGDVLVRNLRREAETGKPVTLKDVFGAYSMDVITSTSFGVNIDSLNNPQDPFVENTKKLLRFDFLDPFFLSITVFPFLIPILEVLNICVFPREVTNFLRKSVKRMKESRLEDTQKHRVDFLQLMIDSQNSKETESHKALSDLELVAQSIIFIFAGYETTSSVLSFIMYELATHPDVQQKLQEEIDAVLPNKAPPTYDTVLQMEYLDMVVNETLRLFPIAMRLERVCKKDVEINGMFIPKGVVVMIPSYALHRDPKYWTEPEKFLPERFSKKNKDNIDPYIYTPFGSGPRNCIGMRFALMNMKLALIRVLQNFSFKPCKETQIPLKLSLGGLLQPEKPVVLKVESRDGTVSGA
smiles,measurement,setting,value
O=C(Nc1nnc(C2=COCCO2)o1)c1ccc([N+](=O)[O-])s1,EC50,[1],18.1 µM (active)
same,EC50,Streptokinase A,> 150 µM (not active)
same,EC50,Streptococcus,> 150 µM (not active)
CCCCNc1c(-c2ccc(SC3CCCCC3)c(OC)c2)nc2ccc(Cl)cn12,EC50,[2],> 60 µM (not active)
same,EC50,[3],1.43 µM (active)
Cc1nc2cnc(N(C)C)nc2n(C2CC2)c1=O,AC50,Cytochrome P450 2C9,15.8 µM (inconclusive)
Cc1ccc2c(c1)N(CCC(=O)NCc1ccc3c(c1)OCO3)C(=O)CO2,AC50,Cytochrome P450 2C9,0.00562 µM (inconclusive)
C/C(=C\c1ccc(Cl)cc1)C(C)(C)C(=O)O,AC50,Cytochrome P450 2C9,3.16 µM (inconclusive)
Cc1ccc(NC(=S)N(CCCN2CCOCC2)Cc2cccnc2)cc1C,EC50,[2],10.9 µM (active)
same,EC50,[3],1.19 µM (active)
CSc1nsc(SC)c1NC(=O)Nc1ccccn1,AC50,Cytochrome P450 2C9,22.4 µM (inconclusive)
COc1ccc(NC(=O)N2CC[C@@]3(CCCN(C(=O)c4csnn4)C3)C2)cc1,AC50,Cytochrome P450 3A4,31.6 µM (inconclusive)
COC(=O)C/C=C\[C@@H](C)[C@@H](/C=N\OCC[C@H]1C=C[C@H](OC(C)=O)[C@@H](COC(C)=O)O1)NS(=O)(=O)c1ccc(C)cc1,AC50,Cytochrome P450 2C9,5.01 µM (inconclusive)
Cc1ccc(CN2CC34C=CC(O3)C(C(=O)NCc3ccco3)C4C2=O)cc1 (stereo not drawn),AC50,Cytochrome P450 1A2,20 µM (inconclusive)
c1ccc2c(NC3C4CC5CC(C4)CC3C5)nc(N3CCOCC3)nc2c1 (stereo not drawn),EC50,[2],> 30 µM (not active)
same,EC50,[3],1.39 µM (active)
CCc1ccc(NC(=O)CSc2nc3cc(C(=O)OC)ccc3c(=O)n2Cc2ccco2)cc1,AC50,Cytochrome P450 3A4,3.98 µM (inconclusive)
same,AC50,Cytochrome P450 2C9,28.2 µM (inconclusive)
COc1ccc(OC)c(NC(=O)Cn2cccc2)c1,AC50,Cytochrome P450 3A4,15.8 µM (inconclusive)
same,AC50,Cytochrome P450 2C9,31.6 µM (inconclusive)
COc1ccc(CC(=O)Nc2nc(-c3ccncc3)cs2)cc1,EC50,[2],> 60 µM (not active)
same,EC50,[3],2.74 µM (active)
O=C(Nc1ccccc1)c1ccccc1CC[N+](=O)[O-],AC50,Cytochrome P450 3A4,7.94 µM (inconclusive)
N#CCCn1c(=O)c(-c2cc(F)cc(F)c2)nc2cnc(N3CCOCC3)nc21,AC50,Cytochrome P450 3A4,20 µM (inconclusive)
same,AC50,Cytochrome P450 1A2,3.16 µM (inconclusive)
Cc1nn(Cc2cccc(Oc3ccccc3)c2)c(C)c1NC(=O)NC12CC3CC(CC(C3)C1)C2,EC50,[2],> 60 µM (not active)
same,EC50,[3],1.29 µM (active)
Cc1ccc(S(=O)(=O)Nc2ccccc2C(=O)c2ccc(C)c(C)c2)cc1,AC50,Cytochrome P450 1A2,0.631 µM (inconclusive)
CN(C)C=O.COCCn1c(SCc2nc(O)c3c(C)c(C(=O)OC)sc3n2)nc2ccccc21,EC50,[1],6.06 µM (active)
same,EC50,Streptokinase A,> 150 µM (not active)
same,AC50,Cytochrome P450 1A2,25.1 µM (inconclusive)
same,EC50,Streptococcus,101 µM (active)
O=C(c1ccncc1)N1CCC2(CC1)CCN(c1ncccn1)CC2,AC50,Cytochrome P450 1A2,20 µM (inconclusive)
CC(C)c1ccc2oc(-c3cc(N)ccc3O)nc2c1,EC50,[2],10.8 µM (active)
same,EC50,[3],2.88 µM (active)
CCOC(=O)c1nn(-c2ccccc2)c(-c2ccccc2)c1C(=O)c1ccccc1,AC50,Cytochrome P450 3A4,15.8 µM (inconclusive)
COc1ccc(O[C@H]2C=C[C@@H](c3ccccc3)O[C@@H]2CON=C(C)C)cc1,AC50,Cytochrome P450 3A4,3.98 µM (inconclusive)
C[C@@H](C(=O)NCCF)[C@H]1C[C@]1(C)[C@H](NC(=O)OCc1ccccc1)c1ccccc1,AC50,Cytochrome P450 2C9,25.1 µM (inconclusive)
same,AC50,Cytochrome P450 1A2,15.8 µM (inconclusive)
CCOC(=O)c1cc2c(ccn2C)n1CC(=O)N1CCCC(C)C1 (stereo not drawn),AC50,Cytochrome P450 1A2,20 µM (inconclusive)
CC(=O)OC[C@H]1O[C@@H](O/N=C(\C)CCN2CCc3nc(-c4ccccc4)c(-c4ccccc4)cc3C2)[C@H](OC(C)=O)[C@@H](OC(C)=O)[C@H]1OC(C)=O,AC50,Cytochrome P450 3A4,5.01 µM (inconclusive)
Cc1cccc(NC(=O)Cn2cccc2)c1,AC50,Cytochrome P450 3A4,22.4 µM (inconclusive)
Cc1cc(C)n2nc(-c3ccsc3-n3c(C)ccc3C)cc2n1,EC50,[2],> 60 µM (not active)
same,EC50,[3],2.77 µM (active)
Cc1cc(C)cc(Nc2c([N+](=O)[O-])nn(-c3ccc4c(c3)OCCO4)[n+]2[O-])c1,EC50,[2],> 60 µM (not active)
same,EC50,[3],0.16 µM (active)
Cc1ccc(S(=O)(=O)N[C@H]2COC(=O)[C@H](C)COC(=O)[C@H](C)NC(=O)C/C=C\[C@H]2C)cc1,AC50,Cytochrome P450 3A4,3.98 µM (inconclusive)
COc1ccc(/C=C/C(=O)Nc2cc(C)nn2-c2nc3ccccc3[nH]2)cc1,EC50,[2],9.28 µM (active)
same,EC50,[3],1.71 µM (active)
OC(COc1ccc(OCc2ccccc2)cc1)CN1CCCCC1 (stereo not drawn),EC50,[2],> 60 µM (not active)
same,EC50,[3],21.4 µM (active)
O=[N+]([O-])c1ccc(S(=O)(=O)Nc2ccc(-c3ccc(N4CCCC4)nn3)cc2)cc1,EC50,[2],> 60 µM (not active)
same,EC50,[3],0.159 µM (active)
COC(=O)C[C@@H]1O[C@H]1[C@H](C)[C@@H](OC)C(C)C,AC50,Cytochrome P450 2C9,3.16 µM (inconclusive)
CN(C)C(=O)c1ccc(-c2cc(N(C)Cc3ccco3)ncn2)cc1,AC50,Cytochrome P450 1A2,25.1 µM (inconclusive)
CCOc1ccc(CN2CCN(Cc3cnc(-c4ccccc4)s3)CC2CCO)cc1 (stereo not drawn),EC50,[2],> 60 µM (not active)
same,EC50,[3],0.201 µM (active)
COc1ccc(-c2nc3cnc(N4CCN(C)CC4)nc3n(-c3ccc(OC)cc3)c2=O)cc1,AC50,Cytochrome P450 2C9,39.8 µM (inconclusive)
same,AC50,Cytochrome P450 1A2,15.8 µM (inconclusive)
COc1ncc2nc(-c3cc(F)cc(F)c3)c(=O)n(-c3ccccc3)c2n1,AC50,Cytochrome P450 1A2,1.26 µM (inconclusive)
O=c1c(-c2cc(F)cc(F)c2)nc2cnc(N3CCOCC3)nc2n1C1CC1,AC50,Cytochrome P450 1A2,1 µM (inconclusive)
Clc1ccc(CSc2nccn2Cc2ccccc2)cc1,EC50,[1],33 µM (active)
same,AC50,Cytochrome P450 2C9,22.4 µM (inconclusive)
same,EC50,Streptokinase A,24.2 µM (inconclusive)
same,EC50,Streptococcus,> 150 µM (not active)
CC(=O)N1CCC[C@@]2(CCN(c3ccccc3)C2)C1,AC50,Cytochrome P450 3A4,25.1 µM (inconclusive)
Cc1ccc(Cn2nnc3c(=O)[nH]c(C4CCN(S(=O)(=O)c5cc(C)ccc5C)CC4)nc32)cc1,EC50,Streptokinase A,21.4 µM (active)
Cc1ccc(Cn2nnc3c(O)nc(C4CCN(S(=O)(=O)c5cc(C)ccc5C)CC4)nc32)cc1,EC50,[1],9.94 µM (active)
same,EC50,Streptococcus,96 µM (active)
CCOc1ccc(C(F)(F)F)cc1NC(C)=O,AC50,Cytochrome P450 2C9,31.6 µM (inconclusive)
O=c1ccn([C@@H]2O[C@@H](COP(=O)(O)OP(=O)(O)O)[C@H](O)[C@@H]2O)c(=O)[nH]1,AC50,Cytochrome P450 3A4,0.794 µM (inconclusive)
COCCCNCCCOc1ccc(C(C)(C)c2ccccc2)cc1,EC50,[2],> 60 µM (inconclusive)
same,EC50,[3],0.567 µM (active)
CC(=O)N(CCCN(C)C)CCC(C)CCC=C(C)C (stereo not drawn),EC50,[2],> 60 µM (not active)
same,EC50,[3],0.324 µM (active)
COc1ccc(-c2cc3nc[nH]c(=O)c3s2)cc1,EC50,Streptokinase A,> 150 µM (not active)
COc1ccc(-c2cc3ncnc(O)c3s2)cc1,EC50,[1],3.63 µM (active)
same,EC50,Streptococcus,17.8 µM (active)
O=C(NNC(=O)c1ccccc1)C(=O)N1CCCCC1,AC50,Cytochrome P450 2C9,0.00562 µM (inconclusive)
CN(c1ccc(C(=O)NC2CC3CCC2C3)cc1)S(C)(=O)=O (stereo not drawn),AC50,Cytochrome P450 3A4,15.8 µM (inconclusive)
COc1cc(/C=N/N=c2\[nH]c3ccccc3s2)cc([N+](=O)[O-])c1O,EC50,Streptokinase A,> 150 µM (not active)
COc1cc(/C=N/Nc2nc3ccccc3s2)cc([N+](=O)[O-])c1O,EC50,[1],9.74 µM (active)
same,EC50,Streptococcus,> 150 µM (not active)
C/C(N)=C(/C#N)C(=O)CSc1nc(-c2ccccc2)c(-c2ccccc2)o1,EC50,[2],> 60 µM (not active)
same,EC50,[3],1.43 µM (active)
C/C(Cn1cnc([N+](=O)[O-])n1)=N\NC(=O)c1ccccc1O,EC50,[2],> 60 µM (not active)
same,EC50,[3],1.73 µM (active)
CCOC(=O)/C(=N\Nc1ccc(Cl)cc1)c1csc(Nc2ccccc2)n1,EC50,[1],6.05 µM (active)
same,EC50,Streptokinase A,20.9 µM (active)
same,EC50,[2],> 60 µM (not active)
same,EC50,Streptococcus,37 µM (active)
same,EC50,[3],1.48 µM (active)
Cc1ccccc1OCC(=O)N/N=C1\CCOc2c(C)cccc21,AC50,Cytochrome P450 3A4,3.16 µM (inconclusive)
